# Where two headings read alike, the source gives them in different places.
# How the values were obtained:
# [1] = tested on: progesterone release in syncytialised BeWo cells; test: Steroidogenesis (progesterone release) in syncytialised BeWo cells; type: cell-based, human; settings: 48 h; for progesterone release (in words): crizotinib 1 μM, paclitaxel 3 nM, cisplatin 100 μM, carboplatin 100 μM
# Method: (§1) Two human choriocarcinoma-derived placental cell lines were used: JEG3 and BeWo (ATCC catalog numbers HTB-36 and CCL-98, respectively). JEG3 cells were cultured in DMEM and Bewo cells in Ham’s F-12 K medium, supplemented with 10% fetal calf serum and 1% penicillin and streptomycin under a humidified 5% CO2/95% air atmosphere at 37 °C. Cells were passaged (JEG3: 1:10 twice a week; BeWo: 1:3 once a week) after trypsinization with 0.05% Trypsin–EDTA when cells reached approximately 80% confluency. For BeWo cells, the medium was renewed 3 times a week. To create syncytialised BeWo cells, regular BeWo cells were treated with 50 μM forskolin (Sigma-Aldrich, St. Louis, MO, USA) in 0.1% DMSO, to initiate syncytialisation. As forskolin increases the intracellular cAMP levels, it activates protein kinase A after which syncytialisation and fusion of trophoblasts occurs (Orendi et al. [2010]).
# For doxorubicin, only two concentrations were tested. Conditioned medium, containing the secreted hormones, was collected after 48 h exposure to the TKIs and cytostatic drugs and stored at − 80 °C until analysis. To eliminate the influence of the varying cell densities between the wells, total protein content in each well was measured. Cells were washed twice with Hank’s buffered Salt Solution (HBSS) and lysed with 50 μL 1 M sodium hydroxide (NaOH). Subsequently, 10 μL of the lysate was mixed with 190 μL of 5 times diluted dye reagent (Biorad protein assay). The absorbance was measured at 595 nm using a Biorad Multiwell Plate reader. The quantities of protein in the samples were determined via a calibration curve of bovine serum albumin.
# (§2) Progesterone and estrone concentrations in culture medium were determined by LC–MS/MS analysis using an Acquity UPLC (Waters, Milford, MA, USA) equipped with a C18 UPLC column (Acquity UPLC BEH C18, 2.1 × 50 mm, Milford, MA, USA, Waters) coupled to a Xevo TQ-S (Waters) triple quadrupole mass spectrometer. Progesterone-D9 was used as internal standard and calibration curves were made in the matrix. To precipitate proteins, methanol containing the internal standard was added to culture medium samples in a ratio 3:1 (MeOH:medium). Following subsequent centrifugation (13,000g for 3 min), 1 μl of the clear supernatant was injected into the LC–MS to quantify progesterone and estrone. Solvent A consisted of 0.2 mM NH4F in water and solvent B consisted of 0.2 mM NH4F in Acetonitrile:Methanol in a ratio of 75:25%. Separation was performed at a flow rate of 350 µl/min under the following gradient conditions: 0 min 60% eluent A, 3.0 min 0% eluent A, 4 min 0% eluent A, 5 min 60% eluent A. The effluent from the UPLC was passed directly into the electrospray ion source. Positive electrospray ionization was achieved using nitrogen as a desolation gas with ionization voltage at 600 V. The source temperature was set at 500 °C and argon was used as collision gas. The following SRM transitions were used: m/z 315.10 (parent ion) to m/z 69.9 and m/z 108.9 (both product ions) for progesterone, m/z 269.0 (parent ion) to m/z 144.9 and 158.9 (product ions) for estrone, and m/z 324.2 (parent ion) to m/z 99.9 and m/z 112.9 (product ions) for the internal standard d9-progesterone. We also attempted to quantify estradiol and estriol levels in the culture medium of both explants and cells, but these were below the detection limit.
# [2] = ref Gaver et al. [1988]; cited from earlier work
# [3] = tested on: progesterone and estrone release in placental explants; test: Steroid (progesterone, estrone) release in placental explants, LC-MS/MS of culture medium; type: cell-based, human; settings: placental explants; for progesterone release relative to control (in words): 100 µM, 72 h exposure; for reduction in progesterone release (in words): 10 and 100 µM gefitinib, 100 μM imatinib, effects over time (Fig. S2A)
# Method: (§3) Term placentas, obtained from consenting women following uncomplicated pregnancies and delivered vaginally or by caesarean section, were used for all experiments. Approval of the Regional Committee on Research involving Human Subjects was obtained (File 2014-1397). Within 60 min after delivery, 1 cm^3 villous tissue samples were excised at random areas midway between the umbilical cord and distal edge of the placenta. To remove maternal blood, samples were carefully rinsed in sterile Dulbecco’s phosphate-buffered saline supplemented with calcium chloride and magnesium chloride (Sigma-Aldrich, St. Louis, MO, USA) which was kept at 37 °C. The villous tissue was cut into small pieces weighing approximately 5 mg, after which 4–6 pieces of tissue were cultured together in individual wells of a 6-well plate. The explants were cultured in 1.5 ml of RPMI-1640 culture medium (Gibco, USA) with 15% heat-inactivated fetal bovine serum, 1% penicillin streptomycin, 1% gentamicin, and 1% amphotericin B (Life Technologies, USA). Placental explant cultures were kept for 7 days at 37 °C in a humidified gas mixture of 5% CO2 and 95% air. The culture medium was renewed every 24 h.
# Treatment with TKIs or cytostatic drugs was started at day four of culture to allow for the syncytiotrophoblasts to regenerate (Siman et al. [2001]). Explants were then incubated for 72 h with 1, 10 or 100 µM of all TKIs or cytostatic drugs mentioned above. […] For cisplatin and carboplatin, culture medium was used as a solvent. Culture medium was replaced every 24 h with new medium containing the original concentration of the drug. Supernatant was collected each day and stored at − 20 °C for hormone quantification.
# as §2
# Construction of graphs and data analysis were performed using Graphpad Prism version 8.4.2. MTT conversion and progesterone and estrone release in placental explants were normalized to tissue wet weight. To compare the effects on tissue viability and cell viability, the data were normalized to control conditions and mean differences were tested using an unpaired t test, a one-way ANOVA, or a two-way repeated measures ANOVA. […]
# [4] = tested on: placental villous explants; test: MTT assay in placental explants (tissue viability); type: cell-based, human; settings: 72 h exposure, 1, 10 or 100 µM
# Method: as §3
# (§4) Treatment with TKIs or cytostatic drugs was started at day four of culture to allow for the syncytiotrophoblasts to regenerate (Siman et al. [2001]). Explants were then incubated for 72 h with 1, 10 or 100 µM of all TKIs or cytostatic drugs mentioned above. […] Culture medium was replaced every 24 h with new medium containing the original concentration of the drug. Supernatant was collected each day and stored at − 20 °C for hormone quantification.
# (§5) To evaluate tissue and cell viability, after 72 h of drug exposure, tissue explants were incubated for 4 h at 37 °C with 1 mM 3-(4,5-dimethylthiazol-2-yl)-[…] (MTT) in RPMI. After incubation, the medium was removed, the tissue in each well was weighed, and the explants were subsequently placed in 500 µL DMSO for 10 min to dissolve the formazan formed. After 10 min, the DMSO was transferred to a 96-well plate and absorbance was measured at 540 nm using a Biorad Multiwell Plate reader.
# (§6) Construction of graphs and data analysis were performed using Graphpad Prism version 8.4.2. MTT conversion and progesterone and estrone release in placental explants were normalized to tissue wet weight. To compare the effects on tissue viability and cell viability, the data were normalized to control conditions and mean differences were tested using an unpaired t test, a one-way ANOVA, or a two-way repeated measures ANOVA. The change in progesterone release rate as compared to the baseline (at 0 h) was calculated for each well separately, after which data were normalized to control conditions. One-way ANOVA was used to assess effects at the 72 h time point only. The Bonferroni post hoc test was applied to compare treatment conditions with controls. Data are described as mean ± SD in Figs. 2 and 3 and as mean ± SEM in all other figures where comparisons of means between groups were made. The mean and SD or SEM were calculated from all individual results (three experiments performed in duplicate or triplicate wells, n = 6 or n = 9).
# [5] = tested on: progesterone release in BeWo cells; test: Progesterone release in BeWo cells in control conditions (forskolin-induced syncytialisation); type: cell-based; settings: Homo sapiens, 48 h, read-out: progesterone production, % of control
# Method: Two human choriocarcinoma-derived placental cell lines were used: JEG3 and BeWo (ATCC catalog numbers HTB-36 and CCL-98, respectively). JEG3 cells were cultured in DMEM and Bewo cells in Ham’s F-12 K medium, supplemented with 10% fetal calf serum and 1% penicillin and streptomycin under a humidified 5% CO2/95% air atmosphere at 37 °C. Cells were passaged (JEG3: 1:10 twice a week; BeWo: 1:3 once a week) after trypsinization with 0.05% Trypsin–EDTA when cells reached approximately 80% confluency. For BeWo cells, the medium was renewed 3 times a week. […]
# For doxorubicin, only two concentrations were tested. […] To eliminate the influence of the varying cell densities between the wells, total protein content in each well was measured. […] The absorbance was measured at 595 nm using a Biorad Multiwell Plate reader. The quantities of protein in the samples were determined via a calibration curve of bovine serum albumin.
# Progesterone and estrone concentrations in culture medium were determined by LC–MS/MS analysis using an Acquity UPLC (Waters, Milford, MA, USA) equipped with a C18 UPLC column (Acquity UPLC BEH C18, 2.1 × 50 mm, Milford, MA, USA, Waters) coupled to a Xevo TQ-S (Waters) triple quadrupole mass spectrometer. […] Following subsequent centrifugation (13,000g for 3 min), 1 μl of the clear supernatant was injected into the LC–MS to quantify progesterone and estrone. […]
# [6] = tested on: JEG-3, BeWo, and syncytialised BeWo cells; test: MTT assay, cell viability in all three trophoblast cell types; type: cell-based, human
# Method: as §1
# The cells were seeded in 96-well culture plates at a cell density of 1 × 10^4 cells/well and cultured for 24 h at 37 °C in a humidified atmosphere with 5% CO2 to allow for attachment. Subsequently, the cells were exposed to the TKIs and cytostatic drugs in concentrations ranging from 100 pM to 100 µM (triplicate). […] This is a minimum percentage DMSO, but required as cells required co-incubation with forskolin to syncytialise. Crizotinib 100 μM was used as positive control. After attachment, cells were incubated with the compounds for 48 h, after which the medium was removed and the cells were exposed to […] diluted in medium. After 3 h of incubation with MTT, the formazan crystals formed were solubilized in 50 μL DMSO. The absorbance of formazan was measured at 540 nm by a Biorad Multiwell Plate reader.
# [7] = MTT assay in placental explants (tissue viability); type: cell-based, human; settings: female, human, term placental villous tissue explants, 100 µM, 72 h exposure, mean ± SEM, read-out: tissue viability, % of control
# Method: as §3, §4, §5, §6
# [8] = tested on: syncytialised BeWo cells; type: cell-based, human
# Method: The cells were seeded in 96-well culture plates at a cell density of 1 × 10^4 cells/well and cultured for 24 h at 37 °C in a humidified atmosphere with 5% CO2 to allow for attachment. Subsequently, the cells were exposed to the TKIs and cytostatic drugs in concentrations ranging from 100 pM to 100 µM (triplicate). […] This is a minimum percentage DMSO, but required as cells required co-incubation with forskolin to syncytialise. Crizotinib 100 μM was used as positive control. […] The absorbance of formazan was measured at 540 nm by a Biorad Multiwell Plate reader.
# [9] = design: method as in Berveiller et al. [2018]; settings: in vivo; ref Berveiller et al. [2018]; cited from earlier work
# [10] = tested on: isolated third trimester primary trophoblasts; design: method as in Berveiller et al. [2018]; settings: ref Berveiller et al. [2018], read-out: concentration giving 50% reduction in cell viability; cited from earlier work
# [11] = tested on: undifferentiated BeWo cells; test: MTT assay, cell viability in undifferentiated BeWo cells; type: cell-based; settings: Homo sapiens, 48 h exposure, read-out: concentration giving 50% reduction in cell viability
# Method: as §1
# The cells were seeded in 96-well culture plates at a cell density of 1 × 10^4 cells/well and cultured for 24 h at 37 °C in a humidified atmosphere with 5% CO2 to allow for attachment. Subsequently, the cells were exposed to the TKIs and cytostatic drugs in concentrations ranging from 100 pM to 100 µM (triplicate). […] The absorbance of formazan was measured at 540 nm by a Biorad Multiwell Plate reader.
# [12] = 50 µM, 24 h, 48 h and 72 h exposure starting at day 4
compound,measurement,setting,value
N.N.O=C([O-])C1(C(=O)[O-])CCC1.[Pt+2] [carboplatin],progesterone release (in words),[1]; not statistically significant,slight induction of progesterone release
same,plasma concentration (may be as high as),[2],≤ 100 µM
N.N.[Cl][Pt][Cl] [cisplatin],progesterone release (in words),[1]; not statistically significant,slight induction of progesterone release
"C[C@@H](Oc1cc(-c2cnn(C3CCNCC3)c2)cnc1N)c1c(Cl)ccc(F)c1Cl [crizotinib, Crizotinib]",progesterone release (in words),[1]; not statistically significant,slight induction of progesterone release
same,progesterone release relative to control (in words),[3],statistically significant reduction in progesterone release
same,effect on tissue viability (in words),[4],fully inhibited tissue viability
C=C[C@@]1(C)CC(=O)[C@]2(O)[C@@]3(C)[C@@H](O)CCC(C)(C)[C@@H]3[C@H](O)[C@H](OC(C)=O)[C@@]2(C)O1 [forskolin],activity at 50 µM,[5]; Forskolin 50 μM in 0.1% DMSO,370 ± 50%
same,activity at 50 µM,[5]; Forskolin 50 μM in 0.5% DMSO,215 ± 12%
same,estrone release (in words),[3]; [12],significant induction in estrone release
same,progesterone release (in words),[3]; [12],not progesterone release
same,effect on cell viability (in words),"[6]; JEG-3 or BeWo cells, 50 μM, 48 h incubation",did not alter cell viability
COc1cc2ncnc(Nc3ccc(F)c(Cl)c3)c2cc1OCCCN1CCOCC1 [gefitinib],reduction in progesterone release (in words),[3],only statistically significant if effects over time were analyzed
same,"viability at 72 h, 100 µM",[7],24 ± 4%
"Cc1ccc(NC(=O)c2ccc(CN3CCN(C)CC3)cc2)cc1Nc1nccc(-c2cccnc2)n1 [imatinib, Imatinib]",activity at 10 µM,"[1]; Homo sapiens, 10 µM, not statistically significant, read-out: progesterone release, % of control",76 ± 9%
same,reduction in progesterone release (in words),[3],only statistically significant if effects over time were analyzed
CC(=O)O[C@H]1C(=O)[C@@]2(C)[C@H]([C@H](OC(=O)c3ccccc3)[C@]3(O)C[C@H](OC(=O)[C@H](O)[C@@H](NC(=O)c4ccccc4)c4ccccc4)C(C)=C1C3(C)C)[C@]1(OC(C)=O)CO[C@@H]1C[C@@H]2O [paclitaxel],cytotoxicity in syncytialised BeWo cells compared to undifferentiated BeWo and JEG3 cells (in words),[8]; 48 h exposure,consistently less cytotoxic in syncytialised BeWo cells
same,concentration in placental tissue compared to maternal levels at delivery,[9],ten-fold higher
same,IC50,[10],18 to 180 nM
same,progesterone release (in words),[1]; not statistically significant,slight induction of progesterone release
same,effect on tissue viability (in words),[4],"moderately affected tissue viability, but this was not statistically significant"
same,IC50,"[6]; Homo sapiens, all cell types (JEG-3, BeWo, syncytialised BeWo), 48 h exposure, read-out: concentration at which cell viability was reduced to 50% or less",3 to 10 nM
same,IC50,[11],1 to 3 nM
"CCN(CC)CCNC(=O)c1c(C)[nH]c(/C=C2\C(=O)Nc3ccc(F)cc32)c1C [sunitinib, sunitinib malate]",cytotoxicity in syncytialised BeWo cells compared to undifferentiated BeWo and JEG3 cells (in words),[8],inhibited cell viability at multiple concentrations to a lesser extent in syncytialised BeWo cells
same,activity at 1 µM,"[1]; Homo sapiens, 1 µM, P < 0.05, read-out: progesterone release, % of control",76 ± 6%
same,activity at 3 µM,"[1]; Homo sapiens, 3 µM, P < 0.001, read-out: progesterone release, % of control",50 ± 4%
same,progesterone release relative to control (in words),[3],statistically significant reduction in progesterone release
same,effect on tissue viability (in words),[4],fully inhibited tissue viability
